Test: Oral fluid to blood (OF/B) concentration ratio and plasma concentration
Conditions: human

**Q.** For CNC(C)C(=O)c1ccc(C)cc1 (stereo not shown) [mephedrone, 4-methylmethcathinone], which Kp (oral, 200 mg) is on record?
**A.** Its Kp is 22.3.

**Q.** And the Kp (po, 100 mg)?
**A.** The Kp was 49.4.

**Q.** What about the Kp (po, 150 mg) of the same compound?
**A.** The Kp was 4.28.

**Q.** And the Kp (po, 200 mg)?
**A.** Its Kp is 11.7.

— paper PMC8389614, “A Comparison of Acute Pharmacological Effects of Methylone and MDMA Administration in Humans and Oral Fluid Concentrations as Biomarkers of Exposure” (Biology, 2021)
